System: HepaRG
Assay: LDH release cytotoxicity, % of total lysis control; higher = more cytotoxic
Conditions: 48 h
Procedure, shortened: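 The CytoTox-ONE kit was used to read LDH in 50 µL spent medium as resorufin fluorescence on a Tecan Safire, with 0.1% Triton X added to total lysis wells. Beforehand, single-lot HepaRG cells on collagen I-coated 96-well plates had been exposed in duplicate for 48 h to eight-point half-log series (top 100 µM) in serum-free induction medium containing 0.5% DMSO. Percent cytotoxicity was normalized against on-plate vehicle and total lysis controls and averaged over duplicates.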

CCCCCCCCCCCCc1ccc(S(=O)(=O)O)cc1 [Dodecylbenzenesulfonic acid]
Conditions | LDH release cytotoxicity [%]
0.031623 µM | -1.05
0.1 µM | -1.4
0.316228 µM | -2.17
1 µM | -3.27
3.16228 µM | -2.52
10 µM | -2.56
31.6228 µM | -1.64
100 µM | 65.65

CCCCCCCCCCCC[N+](C)(C)C [Dodecyltrimethylammonium chloride]
Conditions | LDH release cytotoxicity [%]
0.03162 µM | -1.4
0.1 µM | -0.753
0.3162278 µM | -1.39
1 µM | -1.32
3.16228 µM | -1.23
10 µM | -0.28
31.6228 µM | 0.602
100 µM | 78

CCOP(=S)(Oc1ccc([N+](=O)[O-])cc1)c1ccccc1 (stereo not given) [EPN]
Conditions | LDH release cytotoxicity [%]
0.03162 µM | -0.935
0.1 µM | -1.31
0.3162278 µM | -1.61
1 µM | -1.96
3.16228 µM | -1.14
10 µM | -0.361
31.6228 µM | 0.629
100 µM | 5.51

CCCN(CCC)C(=O)SCC [EPTC]
Conditions | LDH release cytotoxicity [%]
0.03162 µM | 0.307
0.1 µM | -0.433
0.3162278 µM | -0.271
1 µM | -0.35
3.16228 µM | -0.208
10 µM | 0.499
31.6228 µM | 0.312
100 µM | 0.622

CN1CCN(c2ccccc2C=C2SCCN(c3ccc(Cl)c(Cl)c3)C2=O)CC1 [Elzasonan]
Conditions | LDH release cytotoxicity [%]
0.03162 µM | 0.236
0.1 µM | 0.483
0.3162278 µM | 0.649
1 µM | -0.238
3.16228 µM | -0.446
10 µM | 0.355
31.6228 µM | 9.77
100 µM | 88.8

CC[C@H](C)C1O[C@]2(C=C[C@@H]1C)C[C@@H]1C[C@@H](C/C=C(\C)[C@@H](O[C@H]3C[C@H](OC)[C@@H](O[C@H]4C[C@H](OC)[C@H](NC)[C@H](C)O4)[C@H](C)O3)[C@@H](C)/C=C/C=C3\CO[C@@H]4[C@H](O)C(C)=C[C@@H](C(=O)O1)[C@]34O)O2 (stereo not given in full) [Emamectin benzoate]
Conditions | LDH release cytotoxicity [%]
0.031623 µM | -1.83
0.1 µM | -1.09
0.316228 µM | -2.57
1 µM | -3.84
3.16228 µM | -2.51
10 µM | 5.16
31.6228 µM | 83.4
100 µM | 87

O=S1OCC2C(CO1)C1(Cl)C(Cl)=C(Cl)C2(Cl)C1(Cl)Cl (stereo not given) [Endosulfan]
Conditions | LDH release cytotoxicity [%]
0.03162 µM | 0.0956
0.1 µM | -0.361
0.3162278 µM | -0.482
1 µM | -0.273
3.16228 µM | -0.151
10 µM | 0.616
31.6228 µM | -0.612
100 µM | 14.5

O=C(O)C1C2CCC(O2)C1C(=O)O (stereo not given) [Endothal]
Conditions | LDH release cytotoxicity [%]
0.03162 µM | -1.48
0.1 µM | -1.31
0.3162278 µM | -0.8
1 µM | -0.517
3.16228 µM | -1.16
10 µM | -1
31.6228 µM | 1.01
100 µM | 21.8

ClC1=C(Cl)C2(Cl)C3C4CC(C5OC45)C3C1(Cl)C2(Cl)Cl (stereo not given) [Endrin]
Conditions | LDH release cytotoxicity [%]
0.03162 µM | -0.958
0.1 µM | -0.149
0.3162278 µM | -0.591
1 µM | -0.635
3.16228 µM | -0.591
10 µM | -0.724
31.6228 µM | 0.152
100 µM | 6.26

CCC1OC(=O)C(C)C(OC2CC(C)(OC)C(O)C(C)O2)C(C)C(OC2OC(C)CC(N(C)C)C2O)C(C)(O)CC(C)C(=O)C(C)C(O)C1(C)O (stereo not given) [Erythromycin]
Conditions | LDH release cytotoxicity [%]
0.02356 µM | -1.71
0.0745 µM | -2.96
0.23559 µM | -1.94
0.745 µM | -3.63
2.3559 µM | -3.02
7.45 µM | -2.85
23.559 µM | -1.9
74.5 µM | -0.102

CC(C)C(C(=O)OC(C#N)c1cccc(Oc2ccccc2)c1)c1ccc(Cl)cc1 (stereo not given) [Esfenvalerate]
Conditions | LDH release cytotoxicity [%]
0.03162 µM | -0.0612
0.1 µM | -1.61
0.3162278 µM | -0.46
1 µM | -0.419
3.16228 µM | -1.05
10 µM | 0.166
31.6228 µM | -0.322
100 µM | -0.488

CC12CCC3c4ccc(O)cc4CCC3C1CCC2=O (stereo not given) [Estrone]
Conditions | LDH release cytotoxicity [%]
0.03162 µM | -1.21
0.1 µM | -1.61
0.3162278 µM | -1.15
1 µM | -2.36
3.16228 µM | -2.37
10 µM | -2.52
31.6228 µM | -1.9
100 µM | 0.127

NCCO [Ethanolamine]
Conditions | LDH release cytotoxicity [%]
0.03162 µM | -2.14
0.1 µM | -2
0.3162278 µM | -1.29
1 µM | -1.55
3.16228 µM | -0.642
10 µM | -0.777
31.6228 µM | -0.101
100 µM | 0.0783

O=P(O)(O)CCCl [Ethephon]
Conditions | LDH release cytotoxicity [%]
0.03162 µM | -2.07
0.1 µM | -1.57
0.3162278 µM | -2.29
1 µM | -1.94
3.16228 µM | -2.12
10 µM | -1.39
31.6228 µM | -0.276
100 µM | 0.34

CCOP(=S)(OCC)SCSP(=S)(OCC)OCC [Ethion]
Conditions | LDH release cytotoxicity [%]
0.03162 µM | -0.671
0.1 µM | -1.31
0.3162278 µM | -1.54
1 µM | -1.6
3.16228 µM | -1.07
10 µM | -1.06
31.6228 µM | -2.53
100 µM | -0.532

CCOC1Oc2ccc(OS(C)(=O)=O)cc2C1(C)C (stereo not given) [Ethofumesate]
Conditions | LDH release cytotoxicity [%]
0.031623 µM | -1.31
0.1 µM | -1.58
0.316228 µM | -1.7
1 µM | -3.38
3.16228 µM | -2.65
10 µM | -3.76
31.6228 µM | -3.45
100 µM | 12.4

CCCSP(=O)(OCC)SCCC [Ethoprop]
Conditions | LDH release cytotoxicity [%]
0.0325715 µM | -0.633
0.103 µM | -0.669
0.325715 µM | -0.697
1.03 µM | -0.356
3.25715 µM | -0.537
10.3 µM | -0.345
32.5715 µM | 0.55
103 µM | 2.97

CCOc1ccc2c(c1)C(C)=CC(C)(C)N2 [Ethoxyquin]
Conditions | LDH release cytotoxicity [%]
0.03162 µM | -1.26
0.1 µM | -0.577
0.3162278 µM | -1.06
1 µM | -1.45
3.16228 µM | -1.65
10 µM | -1.77
31.6228 µM | -1.67
100 µM | -0.112

CCCC(=O)OCC [Ethyl butyrate]
Conditions | LDH release cytotoxicity [%]
0.03162 µM | -2.73
0.1 µM | -1.76
0.3162278 µM | -1.67
1 µM | -2.36
3.16228 µM | -1.92
10 µM | -0.558
31.6228 µM | 0.726
100 µM | 0.69

CCCCCCC(=O)OCC [Ethyl heptanoate]
Conditions | LDH release cytotoxicity [%]
0.03162 µM | -1.33
0.1 µM | -1.43
0.3162278 µM | -1.58
1 µM | -1.97
3.16228 µM | -1.57
10 µM | -1.28
31.6228 µM | 0.37
100 µM | 3.07

CCOCCOC(C)=O [Ethylene glycol monoethyl ether acetate]
Conditions | LDH release cytotoxicity [%]
0.03162 µM | -1.19
0.1 µM | -0.486
0.3162278 µM | 0.156
1 µM | 0.488
3.16228 µM | 0.0494
10 µM | 0.917
31.6228 µM | 0.221
100 µM | 1.51

OCCO [Ethylene glycol]
Conditions | LDH release cytotoxicity [%]
0.0317809 µM | -0.738
0.1005 µM | -1.93
0.317809 µM | -2.04
1.005 µM | -2.45
3.17809 µM | -1.91
10.05 µM | -1.42
31.7809 µM | -1.26
100.5 µM | 0.328

S=C1NCCN1 [Ethylene thiourea]
Conditions | LDH release cytotoxicity [%]
0.03162 µM | -0.742
0.1 µM | -0.402
0.3162278 µM | -0.462
1 µM | -0.602
3.16228 µM | -0.544
10 µM | 0.0401
31.6228 µM | 0.537
100 µM | 0.155

CCOC(=O)c1ccc(O)cc1 [Ethylparaben]
Conditions | LDH release cytotoxicity [%]
0.03162 µM | -0.474
0.1 µM | -1.24
0.3162278 µM | -1.05
1 µM | -1.23
3.16228 µM | -0.851
10 µM | -1.05
31.6228 µM | -0.271
100 µM | 0.163

CCOc1ccc(C(C)(C)COCc2cccc(Oc3ccccc3)c2)cc1 [Etofenprox]
Conditions | LDH release cytotoxicity [%]
0.03162 µM | -2.22
0.1 µM | -3.48
0.3162278 µM | -2.37
1 µM | -2.59
3.16228 µM | -2.77
10 µM | -2.63
31.6228 µM | -2.47
100 µM | -1.82
